The values that follow come from publication PMC7407945, “Ranacyclin-NF, a Novel Bowman–Birk Type Protease Inhibitor from the Skin Secretion of the East Asian Frog, Pelophylax nigromaculatus” (Biology, 2020).

≈ marks a conversion by molar mass, not a printed value. Where two headings read alike, the source gives them in different places. Bridge positions count the residues as written; N and C are the ends. Ends that are not written are not given here. Peptide text beside a SMILES is read from it.

Series [1] concerns the target T1, trypsin (Bos taurus, UniProt P00760).
T1 construct: gene PRSS1
T1 sequence (P00760 24-246): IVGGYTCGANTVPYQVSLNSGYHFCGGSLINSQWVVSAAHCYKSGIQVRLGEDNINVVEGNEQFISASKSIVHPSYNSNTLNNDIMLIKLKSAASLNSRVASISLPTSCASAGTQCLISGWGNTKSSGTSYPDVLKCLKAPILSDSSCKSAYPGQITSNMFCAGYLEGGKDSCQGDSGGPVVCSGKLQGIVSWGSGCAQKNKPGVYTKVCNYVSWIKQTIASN
Particulars: cited from earlier work. The text has this:
Amino acid residues at P5′ are shaded. | column: Trypsin Inhibition Ki (nM) || In previous studies, extensive studies have been made to reveal the role played by each residue within the TIL in overall enzyme inhibitory activity. However, factors outside this conserved disulphide loop, which may affect trypsin inhibition activity, have rarely been studied. In 2012, Wang et al. discovered the peptide, HJTI, and designed one molecular variant to study the role that cationicity played in trypsin inhibitory potency. They believed that structural features, especially for amino acid residues lying outside the TIL, were crucial in modulating the effectiveness of trypsin inhibito ...

The target in series [2] is T2, tryptase (Homo sapiens, UniProt Q15661).
T2 construct: purchased Calbiochem, Nottingham, UK
T2 sequence (Q15661 31-275): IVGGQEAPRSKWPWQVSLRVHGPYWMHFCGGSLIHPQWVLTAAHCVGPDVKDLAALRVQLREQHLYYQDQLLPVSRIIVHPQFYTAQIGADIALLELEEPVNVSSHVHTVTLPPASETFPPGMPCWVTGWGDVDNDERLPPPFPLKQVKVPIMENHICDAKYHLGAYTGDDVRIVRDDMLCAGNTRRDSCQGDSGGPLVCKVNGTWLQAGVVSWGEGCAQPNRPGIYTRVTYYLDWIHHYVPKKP
The following applies: cited from earlier work; for tryptase inhibitory activity: result in words. The text has this:
Therefore, the emergence of a novel tryptase inhibitor would be an asset in the treatment of some clinical diseases. […] Some publications believe that protease inhibitors cannot work effectively when it comes t ...

For a further series, the target named is chymotrypsin (Bos taurus, UniProt P00766). On the set-up: method as in 2 sources, ref 24 = [24]; PMID 28356487; doi:10.1042/BSR20160593; 24. Wu Y. Long Q. Xu Y. Guo S. Chen T. Wang L. Zhou M. Zhang Y. Shaw C. Walker B. A structural and functional analogue of a Bowman–Birk-type protease inhibitor from Odorrana schmackeri Biosci. Rep. 20 ||| ref 32 = [32]; PMID 31337113; doi:10.3390/biom9070280; 32. Miao Y. Chen G. Xi X. Ma C. Wang L. Burrows J. Duan J. Zhou M. Chen T. Discovery and Rational Design of a Novel Bowman-Birk Related Protease Inhibitor Biomolecules 2019 9 280 10.3390/biom9070280 3; key: N.I.: there was no inhibitory activity. Particulars: cited from earlier work.

Series [3] deals with T1, trypsin. Put plainly: Trypsin inhibition assay. It is filed as biochemical. Particulars: substrate Phe-Pro-Arg-AMC. The protocol:
(§1) Trypsin and chymotrypsin inhibition assays were performed as previously described. The substrate of trypsin and chymotrypsin were Phe-Pro-Arg-AMC and Succinyl-Ala-Ala-Pro-Phe-NHMec, respectively, and obtained from Bachem, Merseyside, UK. In the tryptase inhibition assay, peptide samples were first dissolved in tryptase assay buffer pH 7.6, containing 0.05 M Tris, 0.15 M NaCl and 0.2% (w/v) PEG 6000 (final volume 210 μL) to obtain different concentrations of 0.5, 1, 2 and 4 mM and then added to the wells of a black 96-well plate containing (Boc-Phe-Ser-Arg-NHMec, obtained from Bachem, Merseyside, UK) (50 μM). Before measurement, tryptase (2.5 μL from 1 mg/mL stock solution, Calbiochem, Nottingham, UK) was added to each well. The rate of hydrolysis of substrate was monitored continuously at 37 °C and 460 nm with a Fluostar Optima plate reader (BMG Labtech GmbH, Offenburg, Germany)

For series [4], the target named is T2, tryptase. Briefly: Tryptase inhibition assay. It is filed as biochemical. Particulars: substrate Boc-Phe-Ser-Arg-NHMec 50 μM; pH 7.6, 0.05 M Tris, 0.15 M NaCl, 0.2% PEG 6000; 37 °C; 460 nm. How it is done: as §1
Series [5] deals with HMEC-1 cells (human microvascular endothelial cell line). The following applies: MTT, 24 h, 10^−9 to 10^−4 M; result in words. The protocol:
(§2) Cells (5 × 10^3 cells/mL) were seeded into 96-well plates with FBS-containing fresh medium for 24 h. After that, cells were treated with corresponding serum-free culture medium for 12 h. […] After exposure for 6 h, all liquid was removed and 100 µL of DMSO was added. Finally, the absorbance of samples at 570 nm was determined using an ELISA plate reader (Biotech, Minneapolis, MN, USA).

The subject of series [6] is HaCaT cells (human keratinocyte cell line). The following applies: MTT, 24 h, 10^−9 to 10^−4 M; result in words. The protocol:
as §2

The subject of a further series is human normal cell lines. The following applies: MTT, 24 h, highest concentration tested 100 µM; result in words. The protocol: as §2
Series [7] relates to Staphylococcus aureus (NCTC 10788). The following applies: doubling-dilution method, up to 512 µM.
For series [8], the system named is Methicillin-resistant Staphylococcus aureus (MRSA) (NCTC 12493). Particulars: doubling-dilution method, up to 512 µM.
Series [9] deals with Enterococcus faecalis (NCTC 12697). The following applies: doubling-dilution method, up to 512 µM.
Series [10] concerns Escherichia coli (NCTC 10418). Particulars: doubling-dilution method, up to 512 µM.
Series [11] relates to Pseudomonas aeruginosa (ATTC 27853). The following applies: doubling-dilution method, up to 512 µM.
The subject of series [12] is Klebsiella pneumoniae (ATCC43816). The following applies: doubling-dilution method, up to 512 µM.
Series [13] deals with Candida albicans (NCPF 1467). The following applies: doubling-dilution method, up to 512 µM.
The conditions of series [14]: result in words; cited from earlier work. The text has this:
(§3) Therefore, ranacyclins firstly approach to the membrane surface through hydrophobic interaction and then, at sites where peptide concentrations reach a threshold, insert into the hydrophobic core of the membrane bilaye ...

Another series concerns bacteria. The following applies: result in words; cited from earlier work.
Description: as §3

In the next series the test system is MRSA. Briefly: Checkerboard assay, peptide with Gentamicin. It is filed as cell-based, Staphylococcus aureus. Particulars: Staphylococcus aureus, 18 h. How it is done:
Then, the microorganism cultures (1 × 10^6 cfu/mL) were inoculated into the plate wells and incubated at 37 °C for 18 h. The optical densities of the cultures were measured using an ELISA plate reader (Biotech Minneapolis, MN, USA). The lowest cumulative fractional inhibitory concentration (ΣFIC) was calculated with the following equation:(1) ΣFIC=Compound A treated in combination/Compound A, test in alone+Compound B treated in combination/Compound B, test in alone
ΣFIC ≤ 0.5 indicates synergy; 0.5 < Σ FIC ≤ 4 indicates an additive effect; and Σ FIC > 4 represents an antagonistic effect.

By Ki is commonly meant a measure of affinity in units of concentration, obtained from inhibition or displacement. Turning to “AALKGCWTKSIPPKPCF-NH2 (disulfide) (disulfide 6-16; N-terminus assumed; SMILES CC[C@H](C)[C@@H]1NC(=O)[C@H](CO)NC(=O)[C@H](CCCCN)NC(=O)[C@H]([C@@H](C)O)NC(=O)[C@H](Cc2c[nH]c3ccccc23)NC(=O)[C@@H](NC(=O)CNC(=O)[C@H](CCCCN)NC(=O)[C@H](CC(C)C)NC(=O)[C@H](C)NC(=O)[C@H](C)N)CSSC[C@@H](C(=O)N[C@@H](Cc2ccccc2)C(N)=O)NC(=O)[C@@H]2CCCN2C(=O)[C@H](CCCCN)NC(=O)[C@@H]2CCCN2C(=O)[C@@H]2CCCN2C1=O) [OSTI]”, the inhibition constant (Ki) in the series with trypsin [1] was 0.0003 µM; with tryptase [2] it was 2.5 µM.

Take “AALKGCWTKSIPPKPCF-NH2 (disulfide 6-16 (inferred)) [OSTI]”: the “Ki(µM) of Chymotrypsin” value on chymotrypsin is “N.I”. Also, the tryptase inhibitory activity result on tryptase [2] is “obvious tryptase inhibitory activity”.

`C[C@H](NC(=O)CN)C(=O)N1CCC[C@H]1C(=O)N[C@@H](CCCNC(=N)N)C(=O)NCC(=O)N[C@H]1CSSC[C@@H](C(=O)N[C@@H](Cc2ccccc2)C(N)=O)NC(=O)[C@@H]2CCCN2C(=O)[C@H](CCC(N)=O)NC(=O)[C@@H]2CCCN2C(=O)[C@@H]2CCCN2C(=O)[C@H](Cc2ccc(O)cc2)NC(=O)[C@H](CO)NC(=O)[C@H](CCCCN)NC(=O)[C@H]([C@@H](C)O)NC(=O)[C@H](Cc2c[nH]c3ccccc23)NC1=O` [RNF] (H-GAPRGCWTKSYPPQPCF-NH2; disulfide 6-16) had an inhibition constant Ki on trypsin [3] of 0.447 µM. The compound also came in with a Ki on tryptase [4] of 6.77 µM. The “cytotoxicity on HMEC-1” value in [5] is on record as “negligible cytotoxicity”. For the same compound, the “cytotoxicity on HaCaT” value in [6] is listed as “negligible cytotoxicity”. The cytotoxicity entry in the series with human normal cell lines is listed as “negligible direct cytotoxicity”. Moreover, in series [7], the MBC S. aureus was more than 512 µM and the MIC S. aureus came out at 512 µM (≈ 969 µg/mL). Besides, in series [8], the MBC MRSA was more than 512 µM and the MIC MRSA is more than 512 µM. In [9], this compound gave an MBC E. faecalis of more than 512 µM and an MIC E. faecalis of more than 512 µM. Also, in series [10], the MBC E. coli was more than 512 µM and the MIC E. coli is more than 512 µM. In series [11], this compound registered an MBC P. aeruginosa of more than 512 µM and an MIC P. aeruginosa of more than 512 µM. In series [12], the MBC K. pneumoniae is more than 512 µM and the MIC K. pneumoniae was more than 512 µM. In series [13], the MBC C. albicans was more than 512 µM and the MIC C. albicans is more than 512 µM.

For the compound “GALRGCWTKSYPPKPCK-NH2 (disulfide) (disulfide 6-16) [Ranacyclin-T]”, the Ki in the series with trypsin [1] is 0.116 µM.

As to “GALRGCWTKSYPPKPCK-NH2 (disulfide 6-16 (inferred)) [Ranacyclin-T]”, the secondary structure entry in [14] is “beta-sheet structure”. For the same compound, the “antimicrobial activity with respect to RNF” value with bacteria is “relatively stronger antimicrobial activity”.

For “ALRGCWTKSIPPKPCP-NH2 (disulfide) (disulfide 5-15; N-terminus assumed; SMILES CC[C@H](C)[C@@H]1NC(=O)[C@H](CO)NC(=O)[C@H](CCCCN)NC(=O)[C@H]([C@@H](C)O)NC(=O)[C@H](Cc2c[nH]c3ccccc23)NC(=O)[C@@H](NC(=O)CNC(=O)[C@H](CCCNC(=N)N)NC(=O)[C@H](CC(C)C)NC(=O)[C@H](C)N)CSSC[C@@H](C(=O)N2CCC[C@H]2C(N)=O)NC(=O)[C@@H]2CCCN2C(=O)[C@H](CCCCN)NC(=O)[C@@H]2CCCN2C(=O)[C@@H]2CCCN2C1=O) [PPF-BBI]”, the results for the inhibition constant Ki with trypsin [1] and with tryptase [2] were 0.17 µM and 30.7 µM, respectively.

For orientation: MIC means the lowest concentration found to suppress growth. `CNC(C)C1CCC(N)C(OC2C(N)CC(N)C(OC3OCC(C)(O)C(NC)C3O)C2O)O1` (stereo not shown) [Gentamicin]: the MIC came to 2 µM in the series on MRSA (read-out: MIC of Gentamicin against MRSA, Gentamicin alone, 37 °C, 18 h); 1 µM in the series on MRSA (read-out: MIC of Gentamicin against MRSA, in the presence of RNF and its analogues, 37 °C, 18 h).

Consider “ALRGCWTKSIPPKPCP-NH2 (disulfide 5-15 (inferred)) [PPF-BBI]”, for which, on chymotrypsin, the “Ki(µM) of Chymotrypsin” value was “N.I”. Moreover, at tryptase [2], the tryptase inhibitory activity result is “obvious tryptase inhibitory activity”.

`C[C@H](NC(=O)CN)C(=O)N1CCC[C@H]1C(=O)N[C@@H](CCCNC(=N)N)C(=O)NCC(=O)N[C@H]1CSSC[C@@H](C(=O)N[C@@H](Cc2ccccc2)C(=O)O)NC(=O)[C@@H]2CCCN2C(=O)[C@H](CCC(N)=O)NC(=O)[C@@H]2CCCN2C(=O)[C@@H]2CCCN2C(=O)[C@H](Cc2ccc(O)cc2)NC(=O)[C@H](CO)NC(=O)[C@H](CCCCN)NC(=O)[C@H]([C@@H](C)O)NC(=O)[C@H](Cc2c[nH]c3ccccc23)NC1=O` [RNF1] (H-GAPRGCWTKSYPPQPCF-OH; disulfide 6-16) displayed a Ki on trypsin [3] of 1.3 µM. Moreover, the affinity on tryptase [4], expressed as Ki, was 9.06 µM. In series [7], the MBC S. aureus is more than 512 µM and the MIC S. aureus was more than 512 µM. Besides, in [8], the MBC MRSA is more than 512 µM and the MIC MRSA was more than 512 µM. In series [9], this compound registered an MBC E. faecalis of more than 512 µM and an MIC E. faecalis of more than 512 µM. In series [10], this compound displayed an MBC E. coli of more than 512 µM and an MIC E. coli of more than 512 µM. In addition, in series [11], the MBC P. aeruginosa was more than 512 µM and the MIC P. aeruginosa was more than 512 µM. In addition, in series [12], the MBC K. pneumoniae was more than 512 µM and the MIC K. pneumoniae is more than 512 µM. In addition, in series [13], the MBC C. albicans is more than 512 µM and the MIC C. albicans is more than 512 µM.

In the case of “GAPKGCWTKSYPPQPCS-NH2 (disulfide) (disulfide 6-16; N-terminus assumed; SMILES C[C@H](NC(=O)CN)C(=O)N1CCC[C@H]1C(=O)N[C@@H](CCCCN)C(=O)NCC(=O)N[C@H]1CSSC[C@@H](C(=O)N[C@@H](CO)C(N)=O)NC(=O)[C@@H]2CCCN2C(=O)[C@H](CCC(N)=O)NC(=O)[C@@H]2CCCN2C(=O)[C@@H]2CCCN2C(=O)[C@H](Cc2ccc(O)cc2)NC(=O)[C@H](CO)NC(=O)[C@H](CCCCN)NC(=O)[C@H]([C@@H](C)O)NC(=O)[C@H](Cc2c[nH]c3ccccc23)NC1=O) [HJTI, Odorrana hejiangensis]”, the Ki with trypsin [1] is 0.388 µM.
